Measured values published in PubChem BioAssay (NCI).
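Assay format: 96-well plates, 48-hour exposure. TGI is the concentration that stops growth completely.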

How the values were obtained:
Assay in all cases: NCI-60 cell line screen, 48 h
NCI-H522 lung = test system: NCI-H522 lung
RPMI-8226 leukemia = test system: RPMI-8226 leukemia
COLO 205 colon = test system: COLO 205 colon
SF-539 CNS = test system: SF-539 CNS
UO-31 renal = test system: UO-31 renal
MDA-MB-435 = test system: MDA-MB-435
HCC-2998 colon = test system: HCC-2998 colon
MDA-MB-231 breast = test system: MDA-MB-231 breast
SW-620 colon = test system: SW-620 colon
MOLT-4 leukemia = test system: MOLT-4 leukemia
T-47D breast = test system: T-47D breast
CCRF-CEM leukemia = test system: CCRF-CEM leukemia
786-0 renal = test system: 786-0 renal
OVCAR-8 ovarian = test system: OVCAR-8 ovarian
SN12C renal = test system: SN12C renal
NCI-H23 lung = test system: NCI-H23 lung
KM12 colon = test system: KM12 colon
SK-MEL-5 melanoma = test system: SK-MEL-5 melanoma
UACC-62 melanoma = test system: UACC-62 melanoma
MALME-3M melanoma = test system: MALME-3M melanoma
MCF7 breast = test system: MCF7 breast
LOX IMVI melanoma = test system: LOX IMVI melanoma
SK-MEL-28 melanoma = test system: SK-MEL-28 melanoma
HT29 colon = test system: HT29 colon
NCI/ADR-RES ovarian = test system: NCI/ADR-RES ovarian
HOP-92 NSCLC = test system: HOP-92 NSCLC
CAKI-1 renal = test system: CAKI-1 renal
RXF 393 renal = test system: RXF 393 renal
OVCAR-3 ovarian = test system: OVCAR-3 ovarian
EKVX NSCLC = test system: EKVX NSCLC
SK-OV-3 ovarian = test system: SK-OV-3 ovarian
SF-295 CNS = test system: SF-295 CNS
HOP-62 NSCLC = test system: HOP-62 NSCLC
NCI-H226 lung = test system: NCI-H226 lung
A549 NSCLC = test system: A549 NSCLC
A498 renal = test system: A498 renal
K-562 leukemia = test system: K-562 leukemia
NCI-H460 lung = test system: NCI-H460 lung
ACHN renal = test system: ACHN renal
HS 578T breast = test system: HS 578T breast
SNB-75 CNS = test system: SNB-75 CNS
UACC-257 melanoma = test system: UACC-257 melanoma
MDA-N = test system: MDA-N
HCT-116 colon = test system: HCT-116 colon
TK-10 renal = test system: TK-10 renal
SF-268 CNS = test system: SF-268 CNS
U251 CNS = test system: U251 CNS
DU-145 prostate = test system: DU-145 prostate
M14 melanoma = test system: M14 melanoma
PC-3 prostate = test system: PC-3 prostate
HCT-15 colon = test system: HCT-15 colon
SNB-19 CNS = test system: SNB-19 CNS
OVCAR-5 ovarian = test system: OVCAR-5 ovarian
HL-60(TB) leukemia = test system: HL-60(TB) leukemia
OVCAR-4 ovarian = test system: OVCAR-4 ovarian
IGROV1 ovarian = test system: IGROV1 ovarian
SR leukemia = test system: SR leukemia
SK-MEL-2 melanoma = test system: SK-MEL-2 melanoma

Measured: TGI

Cc1ccc2c(/C=C/c3ccc(N(C)C)cc3)ccnc2c1C
63.9 µM: NCI-H522 lung
> 100 µM: SF-539 CNS | MDA-MB-435 | MDA-MB-231 breast | SW-620 colon | MOLT-4 leukemia | T-47D breast | CCRF-CEM leukemia | 786-0 renal | SN12C renal | NCI-H23 lung | LOX IMVI melanoma | NCI/ADR-RES ovarian | CAKI-1 renal | OVCAR-3 ovarian | EKVX NSCLC | SF-295 CNS | HOP-62 NSCLC | NCI-H226 lung | A549 NSCLC | A498 renal | K-562 leukemia | NCI-H460 lung | HS 578T breast | UACC-257 melanoma | MDA-N | HCT-116 colon | SF-268 CNS | U251 CNS | DU-145 prostate | M14 melanoma | HCT-15 colon | SNB-19 CNS | OVCAR-5 ovarian
57.1 µM: HOP-92 NSCLC
95.6 µM: HCC-2998 colon
61.3 µM: MCF7 breast
96.7 µM: ACHN renal
43.6 µM: TK-10 renal
64.3 µM: PC-3 prostate
43.2 µM: SK-MEL-5 melanoma
40.6 µM: MALME-3M melanoma
54 µM: UO-31 renal
38.5 µM: SNB-75 CNS
73.1 µM: UACC-62 melanoma
80.7 µM: HL-60(TB) leukemia
62.3 µM: HT29 colon
52.9 µM: SK-MEL-28 melanoma
55.6 µM: COLO 205 colon
60.8 µM: OVCAR-8 ovarian
72.3 µM: KM12 colon
48.4 µM: RXF 393 renal
67.9 µM: SK-OV-3 ovarian
31 µM: RPMI-8226 leukemia

COc1ccc(N(CN2C(=O)CCC2OC)C(C)=O)cc1 (centres undefined)
> 100 µM: NCI-H522 lung | RPMI-8226 leukemia | COLO 205 colon | SF-539 CNS | UO-31 renal | MDA-MB-435 | MDA-MB-231 breast | SW-620 colon | MOLT-4 leukemia | T-47D breast | CCRF-CEM leukemia | 786-0 renal | OVCAR-8 ovarian | OVCAR-4 ovarian | SN12C renal | NCI-H23 lung | IGROV1 ovarian | KM12 colon | SK-MEL-5 melanoma | UACC-62 melanoma | MALME-3M melanoma | MCF7 breast | LOX IMVI melanoma | SK-MEL-28 melanoma | HT29 colon | NCI/ADR-RES ovarian | HOP-92 NSCLC | CAKI-1 renal | RXF 393 renal | OVCAR-3 ovarian | EKVX NSCLC | SK-OV-3 ovarian | SF-295 CNS | HOP-62 NSCLC | NCI-H226 lung | A549 NSCLC | A498 renal | K-562 leukemia | NCI-H460 lung | ACHN renal | HS 578T breast | SNB-75 CNS | SR leukemia | UACC-257 melanoma | MDA-N | HCT-116 colon | TK-10 renal | SF-268 CNS | U251 CNS | DU-145 prostate | M14 melanoma | SK-MEL-2 melanoma | PC-3 prostate | HCT-15 colon | SNB-19 CNS | OVCAR-5 ovarian

COc1cc(C2c3cc4c(cc3[C@@H](Nc3ccc(F)cc3)C3CO[C@@H](O)[C@H]23)OCO4)cc(OC)c1O (some centres undefined)
12.8 µM: OVCAR-5 ovarian
> 25 µM: RPMI-8226 leukemia | COLO 205 colon | MDA-MB-435 | HCC-2998 colon | MDA-MB-231 breast | SW-620 colon | T-47D breast | 786-0 renal | OVCAR-8 ovarian | OVCAR-4 ovarian | SN12C renal | IGROV1 ovarian | KM12 colon | SK-MEL-5 melanoma | MCF7 breast | SK-MEL-28 melanoma | NCI/ADR-RES ovarian | EKVX NSCLC | SK-OV-3 ovarian | HOP-62 NSCLC | A549 NSCLC | K-562 leukemia | NCI-H460 lung | SNB-75 CNS | UACC-257 melanoma | MDA-N | HCT-116 colon | TK-10 renal | SF-268 CNS | M14 melanoma | PC-3 prostate | HCT-15 colon | SNB-19 CNS
10.3 µM: SF-295 CNS
8.47 µM: U251 CNS
15 µM: NCI-H522 lung
8.28 µM: UO-31 renal
12.6 µM: SF-539 CNS
6.88 µM: ACHN renal
5.23 µM: HL-60(TB) leukemia
14.7 µM: HS 578T breast
4.43 µM: MOLT-4 leukemia
7.72 µM: CCRF-CEM leukemia
